This passage reports IC50, Km and kcat results from patent publication US11814364B2, “Pyridine N-oxide derivatives useful as factor XIa inhibitors” (Janssen Pharmaceutica NV, priority 2021, dated 2023).

Like-named read-outs stand apart in the source and are kept apart here. Where a SMILES comes first, the peptide text is derived from it. The star is where a group is joined. AMC = Cc1cc(=O)oc2cc(N*)ccc12; Cbz = O=C(OCc1ccccc1)*

One test deals with Factor XIa (Homo sapiens, UniProt P03951). As to the kind of experiment: Factor XIa inhibition FLINT assay with fluorophore-quencher peptide substrate 5Fam-[…]-K5Tamra (end point EP or kinetic KIN reads). The class given is biochemical. To be noted: end point read at 30 min; read-out: FXIa (EP) IC50. An excerpt:
Factor XIa inhibition assay utilizing a fluorophore-quencher pair peptide substrate A fluorescence intensity (FLINT) based assay was used to monitor inhibition of Factor XIa. The peptide substrate, 5Fam-[…]-K5Tamra (purchased from New England Peptide) was chosen based on the FXI sequence. Conversion of zymogen FXI to its activated form, FXIa, occurs by proteolytic cleavage by […] at two sites, Arg146 and Arg180. The custom peptide used in this assay was based on the Arg146 cleavage site of FXI. The peptide substrate was designed with a fluorophore-quencher pair, where the fluorescence is quenched until FXIa cleaves the 8-mer peptide after the Arg residue.
Test compound(s) were run in an 11-point, 3-fold serial dilution with a final top compound concentration of 100 nM. Final DMSO in assay was 2%. FXIa was preincubated with compound for 30-minutes and then substrate was added to initiate the reaction. The assay was run with either end point (EP) reads at 30 min or kinetic (KIN) reads at 5 min intervals over 30 minutes. […] More specifically, the assay was run as follows: • 100 nL of 0.01 mM test compound was dispensed into black 384-well non-binding Greiner BioOne 784900 plate for 0.1 μM final concentration; • 5 μL of 1× assay buffer was dispensed to column 24 (low control) and 5 μL 2× Factor XIa solution was dispensed to columns 1-23 (column 23 high control); • the plate was centrifuged with a “cover” plate at 500 rpm for 1 min • the plate was pre-incubated for 30 minutes at room temperature with plate covered; • 5 μL of 2×5Fam-[…]-K5Tamra peptide substrate was dispensed into the entire plate, columns 1-24; • the plate was centrifuged with a “cover” plate at 500 rpm for 1 min; • the plate was read monitoring fluorescence intensity on the BMG PHERAStar at room temperature, using fluorescence module 485 nm/520 nm.
Percent inhibition (IC50) curves were generated per compound tested, and data was analyzed using a 4-parameter logistic fit using GeneData Screener. The relative fluorescence unit (RFU) values were normalized to percent inhibition using the following equation: % inhibition=((HC−LC)−(compound−LC)/(HC−LC))*100
An 11-point dose response curve for the test compound(s) was generated using GENDATA to determine IC50 value based on the following equation: Y=Bottom+(Top−Bottom)/(1+10^((log IC50−X)*HillSlope))
Results listed in columns with […] designation were measured using endpoint reads where a single fluorescence reading was measured for each well at a 30 min timepoint.

In another test the target is human plasma kallikrein (Homo sapiens, UniProt P03952). The test can be described thus: Kallikrein inhibition FLINT assay with quenched AMC peptide substrate Z-Gly-Pro-Arg-AMC (end point EP or kinetic KIN reads). Type of test: biochemical. The method, boiled down: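 Enzyme and compound were preincubated 30 min before adding 50 μM AMC substrate in pH 7.5 Tris/NaCl/CaCl2/BSA/CHAPS buffer. AMC release was read at 30 min endpoint or every 5 min.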
Sequence of human plasma kallikrein (P03952 391-638 limits assumed): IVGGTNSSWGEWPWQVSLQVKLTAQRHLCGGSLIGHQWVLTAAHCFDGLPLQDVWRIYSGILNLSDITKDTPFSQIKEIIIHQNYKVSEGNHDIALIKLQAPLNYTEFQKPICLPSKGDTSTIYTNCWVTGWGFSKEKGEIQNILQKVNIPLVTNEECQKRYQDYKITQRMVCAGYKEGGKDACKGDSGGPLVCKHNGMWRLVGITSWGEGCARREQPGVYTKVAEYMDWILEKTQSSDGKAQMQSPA
Sequence of human plasma kallikrein (P03952 20-390 partner limits assumed): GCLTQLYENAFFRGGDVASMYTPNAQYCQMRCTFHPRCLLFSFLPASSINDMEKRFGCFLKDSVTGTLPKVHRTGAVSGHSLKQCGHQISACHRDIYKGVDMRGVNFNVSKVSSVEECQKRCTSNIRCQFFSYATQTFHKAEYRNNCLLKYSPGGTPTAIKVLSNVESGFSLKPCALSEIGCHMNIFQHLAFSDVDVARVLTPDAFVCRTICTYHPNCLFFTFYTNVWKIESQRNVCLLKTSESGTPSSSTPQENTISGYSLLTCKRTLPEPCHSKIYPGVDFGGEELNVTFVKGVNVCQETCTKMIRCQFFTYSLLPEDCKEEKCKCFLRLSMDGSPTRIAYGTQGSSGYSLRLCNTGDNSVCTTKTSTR

The mark [1] stands for this setting: end point read at 30 min, read-out: Kallikrein (EP) IC50.
The mark [2] stands for this setting: kinetic reads at 5 min intervals over 30 min, read-out: Kallikrein (KIN) IC50.
[3] abbreviates: peptide substrate of kallikrein, titration data fit to Michaelis-Menten equation.

Broadly, the IC50 is the concentration that inhibits the measured activity by half. What is called Km is the concentration of substrate that gives half-maximal velocity. One may read the kcat as the number of substrate molecules converted per active site and unit of time at saturation.

Sequence of Factor XIa (P03951 388-625 limits assumed): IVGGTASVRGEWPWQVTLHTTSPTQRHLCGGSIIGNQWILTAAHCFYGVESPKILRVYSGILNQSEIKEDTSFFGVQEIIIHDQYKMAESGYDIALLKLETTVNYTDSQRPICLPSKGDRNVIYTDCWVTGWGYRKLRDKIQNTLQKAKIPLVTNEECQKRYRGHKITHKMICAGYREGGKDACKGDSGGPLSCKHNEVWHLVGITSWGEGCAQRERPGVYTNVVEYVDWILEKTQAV
Sequence of Factor XIa (P03951 19-387 partner limits assumed): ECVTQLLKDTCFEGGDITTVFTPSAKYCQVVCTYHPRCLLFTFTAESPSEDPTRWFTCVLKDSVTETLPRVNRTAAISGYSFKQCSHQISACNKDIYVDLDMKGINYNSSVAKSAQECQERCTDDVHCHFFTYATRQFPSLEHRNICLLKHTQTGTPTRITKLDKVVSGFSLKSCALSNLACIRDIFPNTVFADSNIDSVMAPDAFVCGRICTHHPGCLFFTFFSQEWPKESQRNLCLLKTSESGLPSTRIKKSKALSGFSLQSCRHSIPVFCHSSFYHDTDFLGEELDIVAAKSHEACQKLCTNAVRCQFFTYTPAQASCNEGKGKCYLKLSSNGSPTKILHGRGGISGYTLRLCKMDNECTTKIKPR

As for `COCCC(c1ccc(-c2c(-n3cnnn3)ccc(Cl)c2F)c[n+]1[O-])n1cc(-c2ccc(NC(=O)OC)cc2)cn1` (racemic) [Example P38], the IC50 on Factor XIa was 3.2 nM; on human plasma kallikrein (setting [1]), 56 nM.
For `Nc1ccc(-c2cnn(C(CC3CC3)c3ccc(-c4cc(Cl)ccc4-n4cnnn4)c[n+]3[O-])c2)c(Cl)n1` (single isomer, unassigned) [Example P49], in that order: 3.4 nM and 79.2 nM.
`O=C(O)c1ccc(-c2cnn(C(CC3CC3)c3ccc(-c4cc(Cl)ccc4-n4cnnn4)c[n+]3[O-])c2)cc1` (centres unmarked) [Example P1]: the results for the half-inhibitory concentration (IC50) on Factor XIa, at human plasma kallikrein (setting [1]) and on human plasma kallikrein (setting [2]) were 2.6 nM, 124 nM and 157 nM, respectively.
With `O=C(O)c1cccc(-c2cnn(C(CC3CC3)c3ccc(-c4cc(Cl)ccc4-n4cnnn4)c[n+]3[O-])c2)c1` (centres unmarked) [Example P3], the IC50 at Factor XIa turned out to be 9.4 nM; at human plasma kallikrein (setting [1]) it was 98.2 nM.
On to `O=C(O)c1ccc(-c2cnn(C(CC3CC3)c3ccc(-c4cc(Cl)ccc4-n4cc(Cl)nn4)c[n+]3[O-])c2)cc1` (centres unmarked) [Example P4], for which the IC50 was 9.9 nM on Factor XIa and 517 nM on human plasma kallikrein (setting [1]).
`O=C(O)c1ccc(-c2cnn([C@H](CC3CC3)c3ccc(-c4cc(Cl)ccc4-n4cnnn4)c[n+]3[O-])c2)cc1` [Example P6]: the IC50 at Factor XIa was found to be 2.1 nM; at human plasma kallikrein (setting [1]), 65.8 nM; at human plasma kallikrein (setting [2]), 85.2 nM.
The matching figures for `O=C(O)c1ccc(-c2cnn(C(Cc3ccc(F)cc3)c3ccc(-c4cc(Cl)ccc4-n4cnnn4)c[n+]3[O-])c2)cc1` (centres unmarked) [Example P7]: 0.8 nM, 4.1 nM and 1.3 nM.
For the molecule `CC(C)(C)OCCC(c1ccc(-c2cc(Cl)ccc2-n2cnnn2)c[n+]1[O-])n1cc(-c2ccc(C(=O)O)cc2)cn1` (centres unmarked) [Example P8], the 50% inhibitory concentration (IC50) at Factor XIa came out at 2.7 nM; at human plasma kallikrein (setting [1]), 329 nM.
Turning to `O=C(O)c1ccc(-c2cnn(C(CC3CC3)c3ccc(-c4c(-n5cnnn5)ccc(Cl)c4F)c[n+]3[O-])c2)cc1` (centres unmarked) [Example P9], the half-maximal inhibitory concentration (IC50) came out at 0.29 nM on Factor XIa and 37 nM on human plasma kallikrein (setting [1]).
As for `O=C(O)c1cccc(-c2cnn(C(CC3CC3)c3c(F)cc(-c4cc(Cl)ccc4-n4cnnn4)c[n+]3[O-])c2)c1` (centres unmarked) [Example P11], the IC50 on Factor XIa worked out at 6.9 nM; at human plasma kallikrein (setting [1]), 81.4 nM.
For the molecule `[2H]C([2H])([2H])C([2H])([2H])CC(c1ccc(-c2c(-n3cc(Cl)nn3)ccc(Cl)c2F)c[n+]1[O-])n1cc(-c2ccc(C(N)=O)c(F)c2)cn1` (centres unmarked) [Example P926], the IC50 at human plasma kallikrein (setting [2]) amounted to 19.2 nM.
The same measure, in the same setting: the figure for `Cc1nnc(CC(c2ccc(-c3c(-n4cc(C(F)(F)F)nn4)ccc(Cl)c3F)c[n+]2[O-])n2cc(-c3ccc(C(N)=O)c(F)c3)cn2)o1` (centres unmarked) [Example P927] is 7.6 nM; for `Cn1ncnc1-c1cnn(C(CC2CNCCO2)c2ccc(-c3c(-n4cc(C(F)(F)F)nn4)ccc(Cl)c3F)c[n+]2[O-])c1` (centres unmarked) [Example P934] it is 326 nM; for `Cn1ncnc1-c1cnn(C(Cc2nnco2)c2ccc(-c3c(-n4cc(C(F)(F)F)nn4)ccc(Cl)c3F)c[n+]2[O-])c1` (centres unmarked) [Example P935] it is 487 nM.
For `[O-][n+]1cc(-c2c(-n3cnnn3)ccc(Cl)c2F)ccc1C(CC1CC1)n1cc(-c2c[nH]nc2Cl)cn1` (centres unmarked) [Example P938], the 50% inhibitory concentration (IC50) on human plasma kallikrein (setting [2]) was 6.9 nM.
Take `O=C(O)c1ccc(-c2cnn(C(Cc3nccs3)c3ccc(-c4c(-n5cc(C(F)(F)F)nn5)ccc(Cl)c4F)c[n+]3[O-])c2)cc1F` (centres unmarked) [Example P941]: the IC50 at human plasma kallikrein (setting [2]) is 12.2 nM.
For the molecule `NC(=O)c1ccc(-c2cnn(C(Cn3cccn3)c3ccc(-c4c(-n5cc(C(F)(F)F)nn5)ccc(Cl)c4F)c[n+]3[O-])c2)cc1F` (centres unmarked) [Example P948], the half-inhibitory concentration (IC50) at human plasma kallikrein (setting [2]) stood at 11.8 nM.
As for `CC(C)(C)c1cnn(CC(c2ccc(-c3c(-n4cc(C(F)(F)F)nn4)ccc(Cl)c3F)c[n+]2[O-])n2cc(-c3ccc(C(N)=O)c(F)c3)cn2)c1` (centres unmarked) [Example P951], the half-inhibitory concentration (IC50) on human plasma kallikrein (setting [2]) came out at 316 nM.
Same read-out and setting: the figure for `NC(=O)c1ccc(-c2cnn(C(Cc3ccn(C(F)F)n3)c3ccc(-c4c(-n5cc(C(F)(F)F)nn5)ccc(Cl)c4F)c[n+]3[O-])c2)cc1F` (centres unmarked) [Example P952] is 2.3 nM; for `N#Cc1cnn(CC(c2ccc(-c3c(-n4cc(C(F)(F)F)nn4)ccc(Cl)c3F)c[n+]2[O-])n2cc(-c3ccc(C(N)=O)c(F)c3)cn2)c1` (centres unmarked) [Example P955] it is 613 nM; for `Cc1cc(C(N)=O)sc1-c1cnn(C(CC2CC2)c2ccc(-c3c(-n4cnnn4)ccc(Cl)c3F)c[n+]2[O-])c1` (centres unmarked) [Example P960] it is 52.9 nM.
As to `O=C(O)c1ccc(-c2cnn(C(Cc3ccccc3)c3ccc(-c4c(OCC(F)(F)F)ccc(Cl)c4F)c[n+]3[O-])c2)cc1` (centres unmarked) [Example Q4], the IC50 on human plasma kallikrein (setting [2]) stood at 265 nM.
Still for that read-out and setting: the figure for `COc1cc(C(Cc2ccccc2)n2cc(-c3ccc(C(=O)O)cc3)cn2)[n+]([O-])cc1-c1c(OCC(F)(F)F)ccc(Cl)c1F` (centres unmarked) [Example Q6] is 10.4 nM; for `O=C(O)c1ccc(-c2cnn(C(CC3CC3)c3ccc(-c4c(C(F)F)ccc(Cl)c4F)c[n+]3[O-])c2)cc1` (centres unmarked) [Example Q16] it is 305 nM; for `O=C(O)c1cc(-c2cnn(C(CC3CC3)c3ccc(-c4c(C(F)F)ccc(Cl)c4F)c[n+]3[O-])c2)c[nH]1` (centres unmarked) [Example Q24] it is 578 nM.
Still for that read-out and setting: the figure for `[O-][n+]1cc(-c2c(C(F)F)ccc(Cl)c2F)ccc1C(CCOC(F)F)n1cc(-c2ccnc(C(F)(F)F)n2)cn1` (centres unmarked) [Example Q29] is 259 nM; for `Cn1nccc1-c1cnn(C(Cn2cc(F)cn2)c2ccc(-c3c(C(F)F)ccc(Cl)c3F)c[n+]2[O-])c1` (centres unmarked) [Example Q30] it is 88.1 nM; for `COCC[C@H](c1ccc(-c2c(C(F)F)ccc(Cl)c2F)c[n+]1[O-])n1cc(-c2ccc(C(=O)O)cc2)cn1` [Example Q34] it is 50.5 nM.
On the same count and under the same terms, the figure for `O=C(O)c1ccc(-c2cnn([C@H](CCOC(F)F)c3ccc(-c4c(C(F)F)ccc(Cl)c4F)c[n+]3[O-])c2)cc1` [Example Q35] is 4 nM; for `NC(=O)c1ccc(-c2cnn(C(CC3CC3C(=O)N3CCCCC3)c3ccc(-c4c(C(F)F)ccc(Cl)c4F)c[n+]3[O-])c2)cc1` (centres unmarked) [Example Q37] it is 99.1 nM.
Regarding `Cn1nncc1-c1cnn([C@H](CCOC(F)F)c2ccc(-c3c(N)ccc(Cl)c3F)c[n+]2[O-])c1` [Example Q44], the IC50 on human plasma kallikrein (setting [2]) was 80.7 nM.
Same read-out and setting: the figure for `Cn1ncnc1-c1cnn(C(CCOC(F)F)c2ccc(-c3c(N)ccc(Cl)c3F)c[n+]2[O-])c1` (centres unmarked) [Example Q45] is 231 nM; for `Cn1ccc(C[C@H](c2ccc(-c3cc(Cl)ccc3C#N)c[n+]2[O-])n2cc(-c3ccc(C(=O)O)cc3)cn2)n1` [Example Q47] it is 57.6 nM.
Take `Cn1ccc(CC(c2ccc(-c3c(C(F)F)ccc(Cl)c3F)c[n+]2[O-])n2cc(-c3ccc(C(=O)O)cc3)cn2)n1` (centres unmarked) [Example Q49]: on human plasma kallikrein (setting [2]), the IC50 is 2.3 nM.
In the case of `COc1cc([C@@H](CC2CC2)n2cc(-c3ccc(C(=O)O)cc3)cn2)[n+]([O-])cc1-c1cc(Cl)ccc1C#N` [Example Q51], the IC50 on human plasma kallikrein (setting [2]) came to 14.5 nM.
The same measure, in the same setting: the figure for `CCC(c1cc(OC)c(-c2cc(Cl)ccc2C#N)c[n+]1[O-])n1cc(-c2ncnn2C(F)F)cn1` (centres unmarked) [Example Q54] is 753 nM.
On to `COc1cc(C(CC2CC2)n2cc(-c3ncnn3C(F)F)cn2)[n+]([O-])cc1-c1c(C#N)ccc(Cl)c1F` (centres unmarked) [Example Q56], for which the IC50 on human plasma kallikrein (setting [2]) stood at 58.9 nM.
On to `Cn1ccc(C[C@H](c2ccc(-c3cc(Cl)ccc3OCC(F)(F)F)c[n+]2[O-])n2cc(-c3ccc(C(=O)O)cc3)cn2)n1` [Example Q58], for which the IC50 on human plasma kallikrein (setting [2]) turned out to be 517 nM.
Take `COc1cc(C(CC2CC2)n2cc(-c3ccc(C(N)=O)c(F)c3)cn2)[n+]([O-])cc1-c1cc(Cl)ccc1C#N` (centres unmarked) [Example Q59]: the IC50 on human plasma kallikrein (setting [2]) stood at 25.2 nM.
On to `COc1cc(C(Cc2ccn(C(F)F)n2)n2cc(-c3ccc(C(=O)O)c(F)c3)cn2)[n+]([O-])cc1-c1c(C(F)F)ccc(Cl)c1F` (centres unmarked) [Example Q74], for which the IC50 on human plasma kallikrein (setting [2]) was 11 nM.
The same measure, in the same setting: the figure for `COc1cc(C(Cc2ccn(C(F)F)n2)n2cc(-c3ccc(C(N)=O)c(F)c3)cn2)[n+]([O-])cc1-c1c(C(F)F)ccc(Cl)c1F` (centres unmarked) [Example Q75] is 10 nM.
Regarding `Cc1cc(=O)oc2cc(NC(=O)[C@H](CCCNC(=N)N)NC(=O)[C@@H]3CCCN3C(=O)CNC(=O)OCc3ccccc3)ccc12` [Z-Gly-Pro-Arg-AMC, reference compound] (Cbz-Gly-Pro-Arg-{AMC}), at human plasma kallikrein (setting [3]), the Km was found to be 40 µM and the kcat was 0.76 s⁻¹.
